In patent publication US20250163057A1, “DCN-1 MODULATING COMPOUNDS AND METHODS OF USE THEREOF” (Cellarity, Inc., priority 2023, published 2025):
Read-outs that look alike come from different tables or passages of the source.

Target: DCN1 (DCUND1) protein PONY domain (Homo sapiens (Human), UniProt Q96GG9)
Test: TR-FRET assay, DCN1 binding with FAM-labeled probe
How it was run: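 Biotinylated DCN1 PONY domain, labeled with streptavidin-Tb, was competed against a FAM-labeled non-covalent DCN1 inhibitor probe in buffer with TritonX and 200 mM NaCl. Conditions were 5 nM DCN1 with 20 nM FAM-probe, or 0.31 nM DCN1 with 100 nM FAM-plus 800 nM unlabeled probe. The TR-FRET ratio was read at 1, 5 and 24 h (0.1% DMSO).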

[1] = 24 hr after treatment with compound, read-out: TR FRET IC50 24 hr
[2] = TR FRET IC50 1 hr (nM), 1 hr after treatment with compound
[3] = read-out: TR FRET IC50 1 hr, 1 hr after treatment with compound

Sequence of DCN1 (DCUND1) protein PONY domain (Q96GG9 60-248): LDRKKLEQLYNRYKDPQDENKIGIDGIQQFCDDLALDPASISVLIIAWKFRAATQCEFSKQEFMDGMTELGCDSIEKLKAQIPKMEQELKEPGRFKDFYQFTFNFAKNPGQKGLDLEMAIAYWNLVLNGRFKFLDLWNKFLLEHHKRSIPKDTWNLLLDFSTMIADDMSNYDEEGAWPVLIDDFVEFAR

## CCN1C(=O)[C@@H](NC(=O)Cc2cccc(C(F)(F)F)c2)[C@@H](C2CC2)c2c(C(=O)N3[C@H](C#N)C[C@H]4C[C@H]43)nn(C3CCOCC3)c21 [Compound I-592]
[1]
  IC50: 1000 to 3000 nM
[2]
  IC50: 1000 to 3000 nM

## CCN1C(=O)[C@@H](NC(=O)C2CCOc3ccccc32)[C@@H](C2CC2)c2c(C(=O)N3[C@H](C#N)C[C@H]4C[C@H]43)nn(C3CCOCC3)c21 (stereo partly shown) [Compound I-598]
[1]
  IC50: 1000 to 3000 nM
[2]
  IC50: 1000 to 3000 nM

## CCN1C(=O)[C@@H](NC(=O)CC2CC(=O)c3ccc(OC)cc32)[C@@H](C2CC2)c2c(C(=O)N3[C@H](C#N)C[C@H]4C[C@H]43)nn(C3CCOCC3)c21 (stereo partly shown) [Compound I-618]
[1]
  IC50: 1000 to 3000 nM
[2]
  IC50: 1000 to 3000 nM

## CCOc1ccc(C)c(C(=O)N[C@@H]2C(=O)N(CC)c3c(c(C(=O)N4[C@H](C#N)C[C@H]5C[C@H]54)nn3C3CCOCC3)[C@@H]2C2CC2)c1 [Compound I-620]
[1]
  IC50: ≤ 200 nM
[3]
  IC50: ≤ 200 nM

## CCN1C(=O)[C@@H](NC(=O)c2cc(F)ccc2C(F)(F)F)[C@@H](C2CC2)c2c(C(=O)N3[C@H](C#N)C[C@H]4C[C@H]43)nn(C3CCOCC3)c21 [Compound I-623]
[1]
  IC50: 1000 to 3000 nM
[2]
  IC50: 1000 to 3000 nM

## CCN1C(=O)[C@@H](NC(=O)c2ccc(C)c(C(F)(F)F)c2)[C@@H](C2CC2)c2c(C(=O)N3[C@H](C#N)C[C@H]4C[C@H]43)nn(C3CCOCC3)c21 [Compound I-627]
[1]
  IC50: ≤ 200 nM
[3]
  IC50: ≤ 200 nM

## CCN1C(=O)[C@@H](NC(=O)C2CCC(F)(F)CC2)[C@@H](C2CC2)c2c(C(=O)N3[C@H](C#N)C[C@H]4C[C@H]43)nn(C3CCOCC3)c21 [Compound I-652]
[1]
  IC50: 1000 to 3000 nM
[2]
  IC50: 1000 to 3000 nM

## CCN1C(=O)[C@@H](NC(=O)c2ccc(C3CCN(C)CC3)cc2)[C@@H](C2CC2)c2c(C(=O)N3[C@H](C#N)C[C@H]4C[C@H]43)nn(C3CCOCC3)c21 [Compound I-653]
[1]
  IC50: 1000 to 3000 nM
[2]
  IC50: 1000 to 3000 nM

## CCN1C(=O)[C@@H](NC(=O)C2CC(C)C2)[C@@H](C2CC2)c2c(C(=O)N3[C@H](C#N)C[C@H]4C[C@H]43)nn(C3CCOCC3)c21 (stereo partly shown) [Compound I-655]
[1]
  IC50: 1000 to 3000 nM
[2]
  IC50: 1000 to 3000 nM

## CCN1C(=O)[C@@H](NC(=O)CC2CCCc3ccccc32)[C@@H](C2CC2)c2c(C(=O)N3[C@H](C#N)C[C@H]4C[C@H]43)nn(C3CCOCC3)c21 (stereo partly shown) [Compound I-663]
[1]
  IC50: 1000 to 3000 nM
[2]
  IC50: 1000 to 3000 nM

## CCN1C(=O)[C@@H](NC(=O)c2ccn(C(C)(C)C)n2)[C@@H](C2CC2)c2c(C(=O)N3[C@H](C#N)C[C@H]4C[C@H]43)nn(C3CCOCC3)c21 [Compound I-688]
[1]
  IC50: ≤ 200 nM
[2]
  IC50: 200 to 1000 nM

## CCN1C(=O)[C@@H](NC(=O)c2cccc(F)c2)[C@@H](C2CC2)c2c(C(=O)N3[C@H](C#N)C[C@H]4C[C@H]43)nn(C3CCOCC3)c21 [Compound I-690]
[1]
  IC50: ≤ 200 nM
[2]
  IC50: 200 to 1000 nM

## CCN1C(=O)[C@@H](NC(=O)c2cc(C)n(C(C)(C)C)n2)[C@@H](C2CC2)c2c(C(=O)N3[C@H](C#N)C[C@H]4C[C@H]43)nn(C3CCOCC3)c21 [Compound I-691]
[1]
  IC50: ≤ 200 nM
[2]
  IC50: 1000 to 3000 nM

## CCN1C(=O)[C@@H](NC(=O)c2ccc3c(c2)OCCO3)[C@@H](C2CC2)c2c(C(=O)N3[C@H](C#N)C[C@H]4C[C@H]43)nn(C3CCOCC3)c21 [Compound I-695]
[1]
  IC50: 1000 to 3000 nM
[2]
  IC50: 1000 to 3000 nM

## CCC(=O)N[C@@H]1C(=O)N(CC)c2c(c(C(=O)N3[C@H](C#N)C[C@H]4C[C@H]43)nn2C2CCOCC2)[C@@H]1C1CC1 [Compound I-696]
[1]
  IC50: 1000 to 3000 nM
[2]
  IC50: 1000 to 3000 nM

## CCN1C(=O)[C@@H](NC(=O)c2cccc(C#N)c2)[C@@H](C2CC2)c2c(C(=O)N3[C@H](C#N)C[C@H]4C[C@H]43)nn(C3CCOCC3)c21 [Compound I-698]
[1]
  IC50: 200 to 1000 nM
[2]
  IC50: 200 to 1000 nM

## CCN1C(=O)[C@@H](NC(=O)C23CC(C(F)(F)F)(C2)C3)[C@@H](C2CC2)c2c(C(=O)N3[C@H](C#N)C[C@H]4C[C@H]43)nn(C3CCOCC3)c21 [Compound I-701]
[1]
  IC50: 1000 to 3000 nM
[2]
  IC50: 1000 to 3000 nM
